Where “and” joins values, the source holds several entries; their conditions need not be identical. Equal entries are not always repeated. Inconclusive results and toxic doses are left out.
Test system: P388 leukemia ip, CD2F1 mice, survival T/C
Test: NCI In Vivo Anticancer Drug Screen. Data for tumor model P388 Leukemia (intraperitoneal) in CD2F1 (CDF1) mice
Settings: endpoint: median survival time, higher = longer survival
Summary of the method: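 Mice carrying the transplanted tumor received test compound or vehicle. Survival was recorded in each group, and the value is the treated-group measurement divided by that of the vehicle-treated control group.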

[1] = dose: 60.0 mg/kg/injection, schedule: Q01DX005 (ip), vehicle: saline with Tween-80
[2] = dose: 120.0 mg/kg/injection, schedule: Q01DX005 (ip), vehicle: saline with Tween-80
[3] = dose: 240.0 mg/kg/injection, schedule: Q01DX005 (ip), vehicle: saline with Tween-80
[4] = dose: 25.0 mg/kg/injection, schedule: Q01DX009 (ip), vehicle: saline
[5] = dose: 50.0 mg/kg/injection, schedule: Q01DX009 (ip), vehicle: saline
[6] = dose: 100.0 mg/kg/injection, schedule: Q01DX009 (ip), vehicle: saline
[7] = dose: 50.0 mg/kg/injection, schedule: Q01DX005 (ip), vehicle: saline with Tween-80
[8] = dose: 100.0 mg/kg/injection, schedule: Q01DX005 (ip), vehicle: saline with Tween-80
[9] = dose: 200.0 mg/kg/injection, schedule: Q01DX005 (ip), vehicle: saline with Tween-80
[10] = dose: 50.0 mg/kg/injection, schedule: Q01DX009 (ip), vehicle: Klucel (hydroxypropylcellulose) (HPC)
[11] = dose: 100.0 mg/kg/injection, schedule: Q01DX009 (ip), vehicle: Klucel (hydroxypropylcellulose) (HPC)

SMILES: O=c1[nH]c2cc(Cl)ccc2nc1/C=C(\O)c1ccc(F)cc1
- T/C [1]: 89 % of control
- T/C [2]: 87 % of control
- T/C [3]: 102 % of control

SMILES: C(=N\NC1=NCCN1)/c1ccncc1
- T/C (dose: 50.0 mg/kg/injection, schedule: Q01DX005 (ip), vehicle: saline): 100 % of control
- T/C (dose: 100.0 mg/kg/injection, schedule: Q01DX005 (ip), vehicle: saline): 94 % of control

SMILES: CCCCN(CCCC)CCNc1ccc(C)c2sc3ccccc3c(=O)c12
- T/C (dose: 12.5 mg/kg/injection, schedule: Q01DX009 (ip), vehicle: saline): 100 % of control
- T/C [4]: 102 % of control
- T/C [5]: 102 % of control
- T/C [6]: 100 % of control

SMILES: COC(=O)c1c2ccccc2cn1C
- T/C (dose: 100.0 mg/kg/injection, schedule: Q04DX002 (ip), vehicle: saline with Tween-80): 100 % of control
- T/C (dose: 200.0 mg/kg/injection, schedule: Q04DX002 (ip), vehicle: saline with Tween-80): 102 % of control

SMILES: [Cl][Pt+2][Cl].[NH-]C1CCCC1[NH-] (stereo unspecified)
- T/C (dose: 3.13 mg/kg/injection, schedule: Q04DX002 (ip), vehicle: saline with Tween-80): 158 % of control
- T/C (dose: 6.25 mg/kg/injection, schedule: Q04DX002 (ip), vehicle: saline with Tween-80): 198 % of control and 190 % of control and 171 % of control
- T/C (dose: 12.5 mg/kg/injection, schedule: Q04DX002 (ip), vehicle: saline with Tween-80): 210 % of control and 197 % of control and 222 % of control
- T/C (dose: 25.0 mg/kg/injection, schedule: Q04DX002 (ip), vehicle: saline with Tween-80): 235 % of control and 112 % of control

SMILES: c1cncc(-c2n[nH]c3c2CCCc2ccccc2-3)c1
- T/C (dose: 12.5 mg/kg/injection, schedule: Q01DX009 (ip), vehicle: other): 107 % of control
- T/C (dose: 25.0 mg/kg/injection, schedule: Q01DX009 (ip), vehicle: other): 100 % of control
- T/C (dose: 50.0 mg/kg/injection, schedule: Q01DX009 (ip), vehicle: other): 107 % of control
- T/C (dose: 100.0 mg/kg/injection, schedule: Q01DX009 (ip), vehicle: other): 96 % of control
- T/C (dose: 200.0 mg/kg/injection, schedule: Q01DX009 (ip), vehicle: other): 105 % of control

SMILES: Cc1c[n+]([O-])ccc1Br
- T/C (dose: 6.25 mg/kg/injection, schedule: Q01DX009 (ip), vehicle: water): 99 % of control
- T/C (dose: 12.5 mg/kg/injection, schedule: Q01DX009 (ip), vehicle: water): 90 % of control
- T/C (dose: 25.0 mg/kg/injection, schedule: Q01DX009 (ip), vehicle: water): 100 % of control
- T/C (dose: 50.0 mg/kg/injection, schedule: Q01DX009 (ip), vehicle: water): 101 % of control

SMILES: CCOC(=O)N1c2ccccc2OC1C#N (stereo unspecified)
- T/C [7]: 99 % of control
- T/C [8]: 107 % of control
- T/C [9]: 113 % of control

SMILES: CC1=Nc2ccccc2NC(=O)C1
- T/C (dose: 12.5 mg/kg/injection, schedule: Q01DX009 (ip), vehicle: Klucel (hydroxypropylcellulose) (HPC)): 99 % of control
- T/C (dose: 25.0 mg/kg/injection, schedule: Q01DX009 (ip), vehicle: Klucel (hydroxypropylcellulose) (HPC)): 108 % of control
- T/C [10]: 100 % of control
- T/C [11]: 108 % of control

SMILES: NCCNCCNCCNCCN (tested in a mixture with another compound)
- T/C [4]: 118 % of control
- T/C [5]: 118 % of control
- T/C [6]: 100 % of control

SMILES: COc1ccc2[nH]c3ccc4cc[n+](CCN5CCC(C6CCN(CC[n+]7ccc8ccc9[nH]c%10ccc(OC)cc%10c9c8c7)CC6)CC5)cc4c3c2c1
- T/C (dose: 1.0 mg/kg/injection, schedule: Q01DX005 (ip), vehicle: water): 165 % of control
- T/C (dose: 1.56 mg/kg/injection, schedule: Q01DX005 (ip), vehicle: Klucel (hydroxypropylcellulose) (HPC)): 159 % of control and 160 % of control
- T/C (dose: 2.0 mg/kg/injection, schedule: Q01DX005 (ip), vehicle: water): 160 % of control and 170 % of control
- T/C (dose: 3.12 mg/kg/injection, schedule: Q01DX005 (ip), vehicle: Klucel (hydroxypropylcellulose) (HPC)): 150 % of control and 166 % of control
- T/C (dose: 4.0 mg/kg/injection, schedule: Q01DX005 (ip), vehicle: water): 161 % of control and 182 % of control
- T/C (dose: 6.25 mg/kg/injection, schedule: Q01DX005 (ip), vehicle: Klucel (hydroxypropylcellulose) (HPC)): 167 % of control and 169 % of control
- T/C (dose: 6.25 mg/kg/injection, schedule: Q01DX005 (ip), vehicle: other): 161 % of control
- T/C (dose: 8.0 mg/kg/injection, schedule: Q01DX005 (ip), vehicle: water): 163 % of control and 173 % of control and 191 % of control
- T/C (dose: 12.5 mg/kg/injection, schedule: Q01DX005 (ip), vehicle: Klucel (hydroxypropylcellulose) (HPC)): 179 % of control and 201 % of control
- T/C (dose: 12.5 mg/kg/injection, schedule: Q01DX005 (ip), vehicle: other): 193 % of control
- T/C (dose: 16.0 mg/kg/injection, schedule: Q01DX005 (ip), vehicle: water): 160 % of control and 190 % of control and 221 % of control
- T/C (dose: 25.0 mg/kg/injection, schedule: Q01DX005 (ip), vehicle: Klucel (hydroxypropylcellulose) (HPC)): 179 % of control and 200 % of control and 212 % of control
- T/C (dose: 25.0 mg/kg/injection, schedule: Q01DX005 (ip), vehicle: other): 175 % of control and 204 % of control
- T/C (dose: 32.0 mg/kg/injection, schedule: Q01DX005 (ip), vehicle: water): 167 % of control and 185 % of control and 223 % of control
- T/C (dose: 50.0 mg/kg/injection, schedule: Q01DX005 (ip), vehicle: Klucel (hydroxypropylcellulose) (HPC)): 160 % of control and 224 % of control and 255 % of control
- T/C (dose: 50.0 mg/kg/injection, schedule: Q01DX005 (ip), vehicle: other): 153 % of control and 160 % of control
- T/C (dose: 100.0 mg/kg/injection, schedule: Q01DX005 (ip), vehicle: Klucel (hydroxypropylcellulose) (HPC)): 193 % of control
- T/C (dose: 200.0 mg/kg/injection, schedule: Q01DX005 (ip), vehicle: Klucel (hydroxypropylcellulose) (HPC)): 112 % of control

SMILES: CSC(=S)N/N=C(\C)c1ccccc1
- T/C (dose: 1.56 mg/kg/injection, schedule: Q01DX009 (ip), vehicle: saline): 99 % of control
- T/C (dose: 3.12 mg/kg/injection, schedule: Q01DX009 (ip), vehicle: saline): 100 % of control
- T/C (dose: 6.25 mg/kg/injection, schedule: Q01DX009 (ip), vehicle: saline): 94 % of control and 97 % of control
- T/C [6]: 98 % of control
- T/C (dose: 200.0 mg/kg/injection, schedule: Q01DX009 (ip), vehicle: saline): 90 % of control

SMILES: COc1ccccc1NC(=O)CC(=O)N1N=C(C)C(N=Nc2ccc(I)cc2)C1=O (stereo unspecified)
- T/C [7]: 95 % of control
- T/C [8]: 100 % of control
- T/C [9]: 92 % of control

SMILES: CC(C)(C)c1cc(OCC2CO2)c(C(C)(C)C)cc1OCC1CO1 (stereo unspecified)
- T/C [10]: 107 % of control
- T/C [11]: 105 % of control
- T/C (dose: 200.0 mg/kg/injection, schedule: Q01DX009 (ip), vehicle: Klucel (hydroxypropylcellulose) (HPC)): 106 % of control
- T/C (dose: 400.0 mg/kg/injection, schedule: Q01DX009 (ip), vehicle: Klucel (hydroxypropylcellulose) (HPC)): 116 % of control

SMILES: C=CCn1cc(F)c(=O)[nH]c1=O
- T/C (dose: 30.0 mg/kg/injection, schedule: Q04DX002 (ip), vehicle: saline): 97 % of control
- T/C (dose: 60.0 mg/kg/injection, schedule: Q04DX002 (ip), vehicle: saline): 100 % of control
- T/C (dose: 120.0 mg/kg/injection, schedule: Q04DX002 (ip), vehicle: saline): 104 % of control
- T/C (dose: 150.0 mg/kg/injection, schedule: Q04DX002 (ip), vehicle: saline): 100 % of control
- T/C (dose: 240.0 mg/kg/injection, schedule: Q04DX002 (ip), vehicle: saline): 99 % of control
- T/C (dose: 300.0 mg/kg/injection, schedule: Q04DX002 (ip), vehicle: saline): 98 % of control
- T/C (dose: 600.0 mg/kg/injection, schedule: Q04DX002 (ip), vehicle: saline): 106 % of control

SMILES: CCOc1c(N=Nc2cccc([N+](=O)[O-])c2)c(C)nn1C(=S)SC
- T/C (dose: 60.0 mg/kg/injection, schedule: Q01DX005 (ip), vehicle: Klucel (hydroxypropylcellulose) (HPC)): 93 % of control
- T/C (dose: 120.0 mg/kg/injection, schedule: Q01DX005 (ip), vehicle: Klucel (hydroxypropylcellulose) (HPC)): 90 % of control

SMILES: C=CC(C)n1[nH]c(=O)n(-c2ccc(O)c([N+](=O)[O-])c2)c1=O (stereo unspecified)
- T/C [1]: 100 % of control
- T/C [2]: 98 % of control
- T/C [3]: 94 % of control

SMILES: COc1cc(/C=C/Cc2cc3c(cc2O)OCO3)cc(OC)c1OC
- T/C [1]: 95 % of control
- T/C [2]: 90 % of control
- T/C [3]: 89 % of control

SMILES: O=C(O)c1ccccc1C(=O)n1cnc2ccccc21
- T/C (dose: 50.0 mg/kg/injection, schedule: Q01DX009 (ip), vehicle: saline with Tween-80): 87 % of control
- T/C (dose: 100.0 mg/kg/injection, schedule: Q01DX009 (ip), vehicle: saline with Tween-80): 94 % of control
- T/C (dose: 200.0 mg/kg/injection, schedule: Q01DX009 (ip), vehicle: saline with Tween-80): 90 % of control

SMILES: CCOc1cc2c(cc1Cc1ccc(OC)cc1OC)OCO2
- T/C [1]: 104 % of control and 107 % of control and 112 % of control
- T/C [2]: 102 % of control and 107 % of control
- T/C [3]: 111 % of control and 123 % of control
- T/C (dose: 480.0 mg/kg/injection, schedule: Q01DX005 (ip), vehicle: saline with Tween-80): 118 % of control
